One test deals with T1, human Topo I (Homo sapiens, UniProt P11387).
T1 construct: gene TOP1
T1 sequence (P11387 2-765): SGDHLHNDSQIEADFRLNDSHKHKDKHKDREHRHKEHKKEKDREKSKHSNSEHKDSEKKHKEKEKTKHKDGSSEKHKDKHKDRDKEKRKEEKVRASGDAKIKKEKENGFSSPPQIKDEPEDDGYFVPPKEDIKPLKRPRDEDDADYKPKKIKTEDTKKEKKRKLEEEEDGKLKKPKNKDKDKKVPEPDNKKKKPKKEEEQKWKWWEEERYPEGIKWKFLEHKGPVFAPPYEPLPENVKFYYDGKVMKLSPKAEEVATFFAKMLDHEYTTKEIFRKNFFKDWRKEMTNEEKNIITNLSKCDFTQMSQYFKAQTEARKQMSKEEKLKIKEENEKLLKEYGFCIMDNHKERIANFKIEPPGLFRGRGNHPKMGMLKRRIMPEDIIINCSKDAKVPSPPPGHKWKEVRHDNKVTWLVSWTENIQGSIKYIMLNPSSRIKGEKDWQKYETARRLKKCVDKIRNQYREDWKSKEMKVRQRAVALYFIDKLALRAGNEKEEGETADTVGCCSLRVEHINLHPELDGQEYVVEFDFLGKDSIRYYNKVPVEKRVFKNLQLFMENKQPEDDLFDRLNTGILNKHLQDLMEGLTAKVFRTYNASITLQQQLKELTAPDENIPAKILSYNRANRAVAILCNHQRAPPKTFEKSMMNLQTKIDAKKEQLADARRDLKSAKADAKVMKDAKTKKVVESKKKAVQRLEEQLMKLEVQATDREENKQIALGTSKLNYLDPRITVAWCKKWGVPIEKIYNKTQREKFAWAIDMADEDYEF
Description: Human Topoisomerase I relaxation high-throughput plate assay (fluorescent DNA stain). The class given is biochemical.

Test [1] has as its system nicked decamer 2B (DNA, duplex, nick between T5 and G6) GCGTT/GTCGC/GCGACAACGC
The test can be described thus: NOESY/TOCSY NMR. Particulars: 25 mM NaCl, 25 mM K3PO4; D2O, pH 6, 298 K; stacking at the nick, intermolecular NOEs.

Test [2] has the same test system. Description: DOSY NMR diffusion. Particulars: 25 mM NaCl, 25 mM K3PO4; D2O, pH 6, 298 K; 0.33 mM each; single-point from diffusion coefficients.
For test [3] the test system is unchanged. The test can be described thus: MALDI-ToF MS. Particulars: covalent; alkylated product m/z 7296.2 in reaction mother liquor.

Structures are written as SMILES. Like-named read-outs stand apart in the source and are kept apart here.

Molecule `CCc1c2c(nc3ccc(O)c(CNCCO)c13)-c1cc3c(c(=O)n1C2)COC(=O)[C@]3(O)CC` [compound 1, 7-ethyl-9-[N-(2′-hydroxyethyl)amino]methyl-10-hydroxycamptothecin] returned an IC50 against human Topo I of 1.73 ± 0.48 µM. Besides, the binding result in test [1] and in test [3] was “yes” throughout. In test [2], this molecule gave a Ka of 746.0 mM⁻¹.

In the case of `CCc1c2c(nc3ccc(O)cc13)-c1cc3c(c(=O)n1C2)COC(=O)[C@]3(O)CC` [SN38, reference compound], the IC50 on human Topo I (read-out: SN38) came to 7.37 ± 7.1 µM.

The values above are taken from paper PMC9612166 (Molecules, 2022).
